Columns and labels:
MC38 cancer cells = assay: Mouse tumor model: MC38 in Rag2 KO mice given CD8 T cells treated with APTO-253; settings: 5×10^5 CD8 T cells treated ex vivo with APTO-253 for 3 days, i.v. the day after 3×10^5 MC38; until day 15; vs PBS-treated CD8 T cells
Experimental: (§1) Accordingly, in the same manner as above, after separating naïve CD8 T cells, naïve CD8 T cells were seeded on a plate coated with anti-CD3 antibody and in the process of activation, anti-CD28 antibody (2 μg/ml) and mIL-2 (100 U/ml) was treated with 3 μM of APTO-253 (MedChemExpress, LLC). Then, it was cultured for 72 hours in a 37° C. 5% CO2 cell incubator. After completion of the culture, the cells were transferred to a 15 ml centrifuge tube, and the volume was adjusted to 3 ml by adding RPMI medium. After that, 3 ml of Histopaque (Sigma) was carefully placed in the lower layer. Then, centrifugation was carried out for 30 minutes at 25° C. at 2,000 rpm, and at this time, acceleration and deceleration were set to a minimum. After centrifugation, the culture solution of the upper layer was removed, and the cells present at the interface were recovered, transferred to a 15 ml centrifuge tube, resuspended in 10 ml of PBS, and centrifuged for 5 minutes at 4° C. and 1,500 rpm. After centrifugation, the supernatant was removed, the cell pellet was washed once more with 10 mL of PBS and centrifuged for 5 minutes at 4° C. and 1,500 rpm. After centrifugation, the supernatant was removed, the cell pellet was resuspended in an appropriate amount of PBS, and the cells were counted. […]

Klf4 gene = Klf4 gene expression in CD8 T cells treated with APTO-253; type: cell-based, mice; settings: 3 μM APTO-253 for 3 days (72 hours) during activation; compared to PBS-treated CD8 T cells
Experimental: as §1

[1] = tested on: CD8 T cells from OT-I transgenic mice; assay: In vitro exhaustion experiment: repeated OVA peptide stimulation of CD8 T cells, gene expression by qRT-PCR; type: cell-based; settings: repeated stimulation+IL-21 treatment group, OVA peptide 10 ng/ml for 5 days
Experimental: To this end, the present inventors specifically isolated CD8 T cells from OT-I transgenic mice having OVA (ovalbumin)-peptide-specific T cell receptor (TCR) and repeatedly treated the OVA peptide for 5 days. All experimental sets were treated with IL-15 (5 ng/ml) and IL-7 (5 ng/ml) to increase the viability of CD8 T cells. After treatment with OVA peptide (10 ng/ml) and washing the next day, stimulation was repeatedly applied for 5 days in such a way that cytokines and OVA peptide were treated with the same composition again (repeated stimulation treatment group). At this time, as a control group, only a cytokine-treated group without OVA peptide treatment and a single stimulation treatment group in which OVA peptide (10 ng/ml) was treated for 2 days and washed, and then only cytokine was treated for 3 days were added. In addition, a set treated with IL-21, which is known to help activate CD8 T cells, was also added (repetitive stimulation+IL-21 treated group) (FIG. 1A). After 5 days, live CD8 T cells were isolated using a cell sorter, RNA was extracted, reverse transcribed into cDNA, and the expression levels of various genes were confirmed by qRT-PCR. […]

Compound | tumor growth (tumor volume) (MC38 cancer cells) | Klf4 gene expression level in CD8 T cells (Klf4 gene) | expression of the Klf4 gene [1] | expression of the Tox gene ([1]; compared with repeated stimulation group)
Cc1[nH]c2ccc(F)cc2c1-c1nc2c3cccnc3c3ncccc3c2[nH]1 [APTO-253, 2-(5-fluoro-2-methyl-1H-indol-3-yl)-1H-imidazo[4,5-f][1,10]phenanthroline] | decreased tumor growth | increased Klf4 gene expression level |  | 
IL-21: cytokine known to help activate CD8 T cells |  |  | significantly increased | decreased

Reference: patent publication US12617864B2, “Methods of activating and proliferating exhausted CD8 T cells, CD8 T cells with enhanced activity prepared by the same, and uses thereof” (Medgene Therapeutics, Inc., priority 2021, dated 2026)
